Among the data in patent US20240092784A1, “CONDENSED HETEROCYCLIC COMPOUND” (NISSAN CHEMICAL CORPORATION, priority 2020, published 2024) are IC50 values, retold here.

Where a name gives a salt, the structure may show the parent alone.

T1 sequence (P35270 whole entry): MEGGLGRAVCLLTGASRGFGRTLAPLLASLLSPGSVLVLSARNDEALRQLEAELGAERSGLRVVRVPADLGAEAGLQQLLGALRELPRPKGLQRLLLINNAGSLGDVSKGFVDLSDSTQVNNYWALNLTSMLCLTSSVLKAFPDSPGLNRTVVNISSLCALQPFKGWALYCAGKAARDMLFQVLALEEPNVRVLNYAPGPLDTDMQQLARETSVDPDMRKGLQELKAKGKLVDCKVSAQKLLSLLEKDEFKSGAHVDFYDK

The target of one test is T1, human SPR (Homo sapiens (Human), UniProt P35270). Kind of test: Evaluation Example 1: Measurement of human SPR inhibitory activity (sepiapterin absorbance at 420 nm). The format is biochemical. The settings on record: 240 minutes at room temperature. The method, then:
Human SPR was prepared as described below. The full-length human SPR (1-261) cDNA was purchased from Eurofins Genomics as an artificially synthesized plasmid containing a DNA sequence optimized for the E. coli expression system so that the sequence of the expressed protein after transcription and translation matches the sequence described in UniprotKB (P35270).
Linearized insert and vector were prepared by PCR using primers designed for amplification of human SPR cDNA and primers designed to contain the thrombin recognition sequence of pET28a (Novagen) and a polyhistidine tag. Cloning was performed using In-Fusion (registered trademark) HD Cloning Kit (TaKaRa) to thereby construct a human SPR expression plasmid. The resultant human SPR expression plasmid was transformed into BL21 (DE3) competent cells (INVITROGEN).
The cells were inoculated into LB medium (1% triptone, 0.5% yeast extract, 1% sodium chloride) containing […] of kanamycin, and then precultured at 37° C. overnight. The precultured cells were inoculated into TB medium (1.2% triptone, 2.4% yeast extract, 9.4% dipotassium hydrogen phosphate, 2.2% potassium dihydrogen phosphate, 0.8% glycerin) containing […] of kanamycin, and the cultured at 37° C., to thereby induce SPR expression with 0.5 mM IPTG for four hours. After the induction, the cells were collected by centrifugation at 6,000 G for 30 minutes and washed with PBS, and the washing was discarded. The washed cells were suspended in buffer solution A (20 mM MES, pH 6.5, 100 mM sodium chloride, 1 mM DTT, 5 mM imidazole). Subsequently, the cell suspension was subjected to ultrasonic treatment to thereby homogenize the cells. The cell homogenate was clarified by centrifugation at 30,000 G for 60 minutes and then filtered with a […]. The filtrate was allowed to pass through HisTrapFF 5 mL column (GE Healthcare). The resin was washed with buffer A, and then gradient elution was performed with buffer B (20 mM MES, pH 6.5, 100 mM sodium chloride, 1 mM DTT, 500 mM imidazole). Thrombin was added to a fraction containing the SPR protein, and the mixture was dialyzed in buffer A overnight, to thereby cleave the tag. After removal of the thrombin by with Benzamidine Sepharose 4 FF (GE Healthcare), the resultant product was allowed to pass through the HisTrapFF 5 mL column, to thereby remove the tag, followed by concentration with Amicon Ultra 10,000 NMWL (Merck Millipore). The concentrate was purified by gel filtration using HiLoad 16/60 Superdex 75 pg (GE Healthcare) equilibrated with buffer C (20 mM MES, pH 6.5, 100 mM sodium chloride, 1 mM DTT). The fraction containing SPR protein was concentrated and then cryopreserved at −80° C.
Human SPR inhibitory activity was measured by using a 384-well low adsorption clear plate (Greiner) with buffer D containing 100 mM Tris-HCl (pH 7.5) (Thermo Fisher Scientific) and 0.01% bovine serum albumin (Sigma). A compound was diluted with DMSO to a concentration of 1 mM, and a 1 μL aliquot of the preparation was diluted with 250 μL of buffer D. The thus-diluted compound was dispensed into the 384-well plate at […]. Thereafter, human SPR was diluted with buffer D to 200 ng/mL and then dispensed into the 384-well plate at 20 μL/well. Subsequently, 40 μL of ultrapure water containing 120 μM Sepiapterin (WuXi AppTec) and 120 μM NADPH (Nacalai) was added to each well, and mixed with a vortex mixer, to thereby initiate the reaction. The reaction mixture was incubated at room temperature for 240 minutes, and the reaction was terminated by addition of 10 μL of ultrapure water containing 2% formic acid (Nacalai). In order to determine the amount of sepiapterin after termination of the reaction, the absorbance at 420 nm was measured by applying the 384-well plate to EnSpire multimode plate reader (Perkin Elmer). The percent inhibition (%) of human SPR by the test compound was calculated by the following formula. […]
`CCOC(=O)c1cc2n(CC(C)(C)C)c(=O)c(C(=O)NC3CC3)c(O)n2n1` [Synthesis Example 1, Ethyl 6-(cyclopropylcarbamoyl)-7-hydroxy-4-neopentyl-5-oxo-4,5-dihydropyrazolo[1,5-a]pyrimidine-2-carboxylate] registered an IC50 of less than 1000 nM. With `CC(C)Cn1c(=O)c(C(=O)NC2CC2)c(O)n2nc(-c3cccnc3N)cc12` [Synthesis Example 24, 2-(2-Aminopyridin-3-yl)-N-cyclopropyl-7-hydroxy-4-isobutyl-5-oxo-4,5-dihydropyrazolo[1,5-a]pyrimidine-6-carboxamide], the IC50 was less than 1000 nM. For `CC(C)(C)Cn1c(=O)c(C(=O)NC2CC2)c(O)n2nc(Nc3cnc(C(=O)O)cn3)cc12` [Synthesis Example 20, 5-((6-(Cyclopropylcarbamoyl)-7-hydroxy-4-neopentyl-5-oxo-4,5-dihydropyrazolo[1,5-a]pyrimidin-2-yl)amino)pyrazine-2-carboxylic acid], the IC50 was less than 1000 nM. On the same count and under the same terms, the figure for `CC1(Cn2c(=O)c(C(=O)NC3CC3)c(O)n3nc(Br)cc23)CCOCC1` [Synthesis Example 27, 2-Bromo-N-cyclopropyl-7-hydroxy-4-((4-methyltetrahydro-2H-pyran-4-yl)methyl)-5-oxo-4,5-dihydropyrazolo[1,5-a]pyrimidine-6-carboxamide] is less than 1000 nM; for `CC1(Cn2c(=O)c(C(=O)NC3CCC3)c(O)n3nc(Br)cc23)CCOCC1` [Synthesis Example 30, 2-Bromo-N-cyclobutyl-7-hydroxy-4-((4-methyltetrahydro-2H-pyran-4-yl)methyl)-5-oxo-4,5-dihydropyrazolo[1,5-a]pyrimidine-6-carboxamide] it is less than 1000 nM. Molecule `COC(=O)c1cnc(Nc2cc3n(CC(C)(C)C)c(=O)c(C(=O)NC4CC4)c(O)n3n2)cn1` [Synthesis Example 19, Methyl 5-((6-(cyclopropylcarbamoyl)-7-hydroxy-4-neopentyl-5-oxo-4,5-dihydropyrazolo[1,5-a]pyrimidin-2-yl)amino)pyrazine-2-carboxylate] registered an IC50 of less than 1000 nM. Same read-out and setting: the figure for `CC(C)(C)Cn1c(=O)c(C(=O)NC2CC2)c(O)n2nc(C(=O)Nc3ccccn3)cc12` [Synthesis Example 41, N6-Cyclopropyl-7-hydroxy-4-neopentyl-5-oxo-N2-(pyridin-2-yl)-4,5-dihydropyrazolo[1,5-a]pyrimidine-2,6-dicarboxamide] is less than 1000 nM; for `O=C(NC1CC1)c1c(O)n2nc(C3CC3)cc2n(CC2CCOCC2)c1=O` [Synthesis Example 135, N,2-Dicyclopropyl-7-hydroxy-5-oxo-4-((tetrahydro-2H-pyran-4-yl)methyl)-4,5-dihydropyrazolo[1,5-a]pyrimidine-6-carboxamide] it is less than 1000 nM.

Molecule `CC(C)(C)Cn1c(=O)c(C(=O)NC2CC2)c(O)n2ncc(/C=C/C(=O)N3CCOCC3)c12` [Synthesis Example 169, (E)-N-Cyclopropyl-7-hydroxy-3-(3-morpholino-3-oxoprop-1-en-1-yl)-4-neopentyl-5-oxo-4,5-dihydropyrazolo[1,5-a]pyrimidine-6-carboxamide] displayed an IC50 of less than 1000 nM.

For `CC(C)(C)Cn1c(=O)c(C(=O)NC2CCC2)c(O)n2nc(Nc3cnccn3)cc12` [Synthesis Example 26, N-Cyclobutyl-7-hydroxy-4-neopentyl-5-oxo-2-(pyrazin-2-ylamino)-4,5-dihydropyrazolo[1,5-a]pyrimidine-6-carboxamide], the IC50 was less than 1000 nM.

In the next test the target is T1, human SPR. Kind of test: Evaluation Example 2: Measurement of human SPR inhibitory activity (seven concentrations, sepiapterin absorbance at 420 nm). Conditions: Evaluation Example 2, seven concentrations 0.14 nM to 100 nM, 240 minutes at room temperature, read-out: IC50. The format is biochemical. The method in brief:
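Reactions ran 240 min at room temperature in 100 mM Tris-HCl pH 7.5 with 0.01% BSA. They contained tag-cleaved, E. coli-expressed full-length human SPR (diluted to 150 ng/mL), seven compound concentrations from 0.14 to 100 nM, and sepiapterin/NADPH added as a 120 μM/160 μM solution. Inhibition was calculated from sepiapterin absorbance at 420 nm.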
With `COC[C@@H]1CCN(C(=O)/C=C/c2c(C)nn3c(O)c(C(=O)NC4CC4)c(=O)n(CC(C)C)c23)C1` [Synthesis Example 621, (R,E)-N-Cyclopropyl-7-hydroxy-4-isobutyl-3-(3-(3-(methoxymethyl)pyrrolidin-1-yl)-3-oxoprop-1-en-1-yl)-2-methyl-5-oxo-4,5-dihydropyrazolo[1,5-a]pyrimidine-6-carboxamide], the IC50 was determined as 1.42 nM.

On to `CCc1nn2c(O)c(C(=O)NC3CC3)c(=O)n(CC(C)C)c2c1/C=C/C(=O)N1[C@@H](C)COC[C@@H]1C` [Synthesis Example 626, N-Cyclopropyl-3-((E)-3-((3S,5S)-3,5-dimethylmorpholino)-3-oxoprop-1-en-1-yl)-2-ethyl-7-hydroxy-4-isobutyl-5-oxo-4,5-dihydropyrazolo[1,5-a]pyrimidine-6-carboxamide], for which the IC50 came to 0.87 nM. On to `Cc1nn2c(O)c(C(=O)NC3CC3)c(=O)n(CC(C)C)c2c1/C=C/C(=O)N1CCCC12CCN(CC(F)(F)F)CC2` [Synthesis Example 666, (E)-N-Cyclopropyl-7-hydroxy-4-isobutyl-2-methyl-5-oxo-3-(3-oxo-3-(8-(2,2,2-trifluoroethyl)-1,8-diazaspiro[4.5]decan-1-yl)prop-1-en-1-yl)-4,5-dihydropyrazolo[1,5-a]pyrimidine-6-carboxamide], for which the IC50 came out at 2.14 nM. Turning to `CC(C)Cn1c(=O)c(C(=O)NC2CC2)c(O)n2nc3[nH]ccc3c12` [Synthesis Example 399, N-Cyclopropyl-7-hydroxy-4-isobutyl-5-oxo-4,5-dihydro-1H-pyrrolo[2′,3′:3,4]pyrazolo[1,5-a]pyrimidine-6-carboxamide], the IC50 stood at 1.56 nM. With `CC(C)(C)Cn1c(=O)c(C(=O)NC2CC2)c(O)n2nc(-c3[nH]ncc3C(=O)N3CCC(F)(F)CC3)cc12` [Synthesis Example 313, N-Cyclopropyl-2-(4-(4,4-difluoropiperidine-1-carbonyl)-1H-pyrazol-5-yl)-7-hydroxy-4-neopentyl-5-oxo-4,5-dihydropyrazolo[1,5-a]pyrimidine-6-carboxamide hydrochloride], the IC50 was found to be 1.15 nM.

In the case of `Cc1nn2c(O)c(C(=O)NC3CC3)c(=O)n(CC(C)C)c2c1/C=C/C(=O)N1CCC(F)(F)CC1` [compound 579, (E)-N-Cyclopropyl-3-(3-(4,4-difluoropiperidin-1-yl)-3-oxoprop-1-en-1-yl)-7-hydroxy-4-isobutyl-2-methyl-5-oxo-4,5-dihydropyrazolo[1,5-a]pyrimidine-6-carboxamide], the IC50 was determined as 0.87 nM.

`CC(C)(F)Cn1c(=O)c(C(=O)NC2CC2)c(O)n2ncc(/C=C/C(=O)N3CCOCC3)c12` [Synthesis Example 390, (E)-N-Cyclopropyl-4-(2-fluoro-2-methylpropyl)-7-hydroxy-3-(3-morpholino-3-oxoprop-1-en-1-yl)-5-oxo-4,5-dihydropyrazolo[1,5-a]pyrimidine-6-carboxamide]: the IC50 was 0.71 nM. The same measure, in the same setting: the figure for `CC(C)Cn1c(=O)c(C(=O)NC2CC2)c(O)n2ncc(/C=C/C(=O)N3CCC(C(F)(F)F)CC3)c12` [compound 480, (E)-N-Cyclopropyl-7-hydroxy-4-isobutyl-5-oxo-3-(3-oxo-3-(4-(trifluoromethyl)piperidine-1-yl)prop-1-en-1-yl)-4,5-dihydropyrazolo[1,5-a]pyrimidine-6-carboxamide] is 1.12 nM; for `COC[C@@H]1COCCN1C(=O)/C=C/c1cnn2c(O)c(C(=O)NC3CC3)c(=O)n(CC3(F)CC3)c12` [Synthesis Example 383, (R,E)-N-Cyclopropyl-4-((1-fluorocyclopropyl)methyl)-7-hydroxy-3-(3-(3-(methoxymethyl)morpholino)-3-oxoprop-1-en-1-yl)-5-oxo-4,5-dihydropyrazolo[1,5-a]pyrimidine-6-carboxamide] it is 0.82 nM.

As usually defined, the IC50 is the concentration needed to halve the response being measured.
